BindingDB's records for doi:10.1021/ml400144e (Riken, 2013)

Target: T1, NF-kappa-B inhibitor alpha (Homo sapiens, UniProt P25963)
T1 sequence (P25963 whole entry): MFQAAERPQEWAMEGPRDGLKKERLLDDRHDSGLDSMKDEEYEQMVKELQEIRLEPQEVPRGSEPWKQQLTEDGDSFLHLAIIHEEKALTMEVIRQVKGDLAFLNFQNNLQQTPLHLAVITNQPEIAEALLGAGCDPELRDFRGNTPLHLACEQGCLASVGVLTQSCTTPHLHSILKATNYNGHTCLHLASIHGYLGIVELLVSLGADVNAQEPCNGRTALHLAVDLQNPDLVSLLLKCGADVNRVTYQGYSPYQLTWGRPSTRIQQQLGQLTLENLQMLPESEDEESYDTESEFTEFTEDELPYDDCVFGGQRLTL
Experiment: Inhibition of TNFalpha-induced IkappaBalpha (unknown origin) phosphorylation expressed in human HeLa cells pretreated 30 mins before TNFalpha addition measured up to 120 mins by ELISA in presence of proteasome inhibitor MG-132

Compound | IC50
C[C@H]1C(=O)OC[C@H]1C[C@@H](O)[C@](C)(O)[C@@]1(O)CC[C@@]2(O)[C@@H]3CC=C4CC=CC(=O)[C@]4(C)[C@H]3CC[C@]12C | > 50 µM
C[C@H]1C(=O)OC[C@H]1C[C@@H](O)[C@](C)(O)[C@]1(O)CC[C@@]2(O)[C@@H]3CC=C4CC=CC(=O)[C@]4(C)[C@H]3CC[C@]12C | > 50 µM
CC1=C(C)C(=O)O[C@@H]([C@](C)(O)C2=CC[C@@]3(O)[C@@H]4CC=C5CC=CC(=O)[C@]5(C)[C@H]4CC[C@]23C)C1 | > 50 µM
CC1=C(C)C(=O)O[C@@H]([C@](C)(O)[C@H]2CC[C@@]3(O)[C@@H]4CC=C5CC=CC(=O)[C@]5(C)[C@H]4CC[C@]23C)C1 | > 50 µM
C[C@]12C(=O)C=CCC1=CC[C@@H]1[C@@H]2CC[C@]2(O)C(=O)O[C@@]3(C)[C@H]4C[C@@](C)([C@@H]5C(=O)[C@]1(O)O[C@@]532)[C@](C)(O)C(=O)O4 | > 50 µM
C[C@]12C(=O)C=CCC1=C[C@@H](O)[C@@H]1[C@@H]2CC[C@@]2(O)C(=O)O[C@@]3(C)[C@H]4C[C@]5(C)[C@@H](CO[C@@]16O[C@]23[C@H]5C6=O)C(=O)O4 | > 50 µM
C=C1C(=O)O[C@@H]2C[C@@]1(C)[C@@H]1C(=O)[C@]3(O)O[C@]14[C@@]2(C)OC(=O)[C@@]4(O)CC[C@H]1[C@H]3CC=C2CC=CC(=O)[C@@]21C | 26.2 µM
C[C@@]12C[C@H]3OC(=O)[C@]1(O)CO[C@]14O[C@@]5([C@H]2C1=O)[C@@]3(C)OC(=O)[C@@]5(O)CC[C@H]1[C@H]4C[C@H]2O[C@]23CC=CC(=O)[C@]13C [25-HYDROXY PHYSALIN F] | 30.1 µM
C[C@@]12C[C@H]3OC(=O)[C@]1(O)CO[C@]14O[C@@]5([C@H]2C1=O)[C@@]3(C)OC(=O)[C@@]5(O)CC[C@H]1[C@H]4C[C@@H]2O[C@@]23CC=CC(=O)[C@]13C [25-HYDROXY PHYSALIN J] | > 50 µM
C[C@]12C(=O)C=CCC1=CC[C@@H]1[C@@H]2CC[C@]2(O)C(=O)O[C@@]3(C)[C@H]4C[C@]5(C)[C@@H](CO[C@@]16O[C@@]32[C@H]5C6=O)C(=O)O4 [NSC-287088] | 37.5 µM
C=C1C(=O)O[C@@H]2C[C@@]1(C)[C@@H]1C(=O)[C@]3(O)O[C@]14[C@@]2(C)OC(=O)[C@@]4(O)CC[C@H]1[C@H]3[C@H](O)C=C2CC=CC(=O)[C@@]21C [PHYSALIN A] | > 50 µM
C[C@@]12C[C@H]3OC(=O)[C@@H]1CO[C@]14O[C@]5([C@H]2C1=O)[C@@](O)(CC[C@H]1[C@H]4C[C@H]2O[C@]24CC=CC(=O)[C@]14C)C(=O)O[C@@]35C [PHYSALIN F] | 27.1 µM
C[C@@]12C[C@H]3OC(=O)[C@@H]1CO[C@@]14O[C@]5(C2C1=O)[C@@](O)(CC[C@H]1[C@H]4C[C@@H]2O[C@@]24CC=CC(=O)[C@]14C)C(=O)O[C@@]35C [PHYSALIN J] | > 50 µM
C[C@@H]1C(=O)O[C@@H]2C[C@@]1(C)[C@@H]1C(=O)[C@]3(O)O[C@]14[C@@]2(C)OC(=O)[C@@]4(O)CC[C@H]1[C@H]3[C@H](O)C=C2CC=CC(=O)[C@@]21C [PHYSALIN O] | > 50 µM
CC1=C(C)C(=O)O[C@@H]([C@](C)(O)[C@]2(O)CC[C@@]3(O)[C@@H]4C[C@H]5O[C@]56CC=CC(=O)[C@]6(C)[C@H]4CC[C@]23C)C1 [WITHANOLIDE E] | 18 µM
CC1=C(C)C(=O)O[C@@H]([C@](C)(O)[C@]2(O)CC[C@@]3(O)[C@@H]4CC=C5CC=CC(=O)[C@]5(C)[C@H]4CC[C@]23C)C1 [WITHANOLIDE F] | > 50 µM
